Test results as given in US20250354979A1, “DRUG EVALUATION METHOD, REAGENT, AND KIT” (FUJIFILM Corporation, priority 2023, published 2025).

Columns and labels:
[1] = test system: human iPS cell-derived myocardial cells; assay: Heart rate of myocardial cells by MEA, serum-free culture medium with isoproterenol added; format: cell-based; details: serum-free culture medium with 1 μmol/L isoproterenol; cumulative drug concentrations, 20 minutes after addition; vs medium control
Procedure: Example 1: Method and results of evaluating decrease in heart rate by muscarinic receptor agonist (carbachol) using serum-free culture medium to which adrenergic receptor agonist (isoproterenol) is added Human iPS cell-derived myocardial cells (iCell myocardial cells 2.0, manufactured by FUJIFILM Cellular Dynamics, Inc.) in a frozen state were thawed, suspended in a thawing culture medium (iCell myocardial cell thawing culture medium, manufactured by FUJIFILM Cellular Dynamics, Inc.), and then seeded at a cell density of 50,000 cells per well on a MEA plate (Cyto View MEA 48, manufactured by Axion BioSystems, Inc.). The seeding density of myocardial cells in the vicinity of the electrode was 2,671 cells/mm^2. After the plate was allowed to stand in a CO2 incubator for several hours, a maintenance culture medium (iCell myocardial cell maintenance culture medium, manufactured by FUJIFILM Cellular Dynamics, Inc.) containing serum was added, and the myocardial cells were cultured in the CO2 incubator for about one week. […]
On the day of measurement, the MEA plate on which human iPS cell-derived myocardial cells were cultured was placed in an MEA system (Maestro Pro, manufactured by Axion BioSystems, Inc.), 1 μmol/L of isoproterenol (manufactured by Tokyo Chemical Industry Co., Ltd.) was added to the culture medium, and then the extracellular potential was measured after 20 minutes from the addition (medium control, carbachol concentration: 0 μmol/L). Subsequently, 0.01 μmol/L of carbachol (manufactured by Tokyo Chemical Industry Co., Ltd.) was added to the MEA plate, and then the extracellular potential was measured after 20 minutes from the addition. Similarly, carbachol was added to give concentrations of 0.1 μmol/L, 1 μmol/L, and 10 μmol/L, and then the extracellular potential was measured at each concentration.
From the measurement results of the extracellular potential, the interval between sharp peaks indicating depolarization of human iPS cell-derived myocardial cells was taken as the beating time (sec), and the heart rate (/min)=60/ beating time (sec) was calculated. […]

[2] = test system: human iPS cell-derived myocardial cells; assay: Heart rate of myocardial cells by MEA, serum-free culture medium with isoproterenol and carbachol added; format: cell-based; details: serum-free culture medium with 1 μmol/L isoproterenol and 3 μmol/L carbachol; cumulative drug concentrations, 20 minutes after addition; vs medium control
Procedure: Example 4: Method and results of evaluating increase in heart rate by muscarinic receptor inhibitor (atropine) using serum-free culture medium to which adrenergic receptor agonist (isoproterenol) and muscarinic receptor agonist (carbachol) are added Human iPS cell-derived myocardial cells (iCell myocardial cells 2.0, manufactured by FUJIFILM Cellular Dynamics, Inc.) in a frozen state were thawed, suspended in a thawing culture medium (iCell myocardial cell thawing culture medium, manufactured by FUJIFILM Cellular Dynamics, Inc.), and then seeded at a cell density of 50,000 cells per well on a MEA plate (Cyto View MEA 48, manufactured by Axion BioSystems, Inc.). The seeding density of myocardial cells in the vicinity of the electrode was 2,725 cells/mm^2. After the plate was allowed to stand in a CO2 incubator for several hours, a maintenance culture medium (iCell myocardial cell maintenance culture medium, manufactured by FUJIFILM Cellular Dynamics, Inc.) containing serum was added, and the myocardial cells were cultured in the CO2 incubator for about one week. The culture medium was exchanged with a serum-free culture medium (a myocardial cell serum-free assay culture medium, manufactured by FUJIFILM Cellular Dynamics, Inc.) on the day before the measurement.
On the day of measurement, the MEA plate on which human iPS cell-derived myocardial cells were cultured was placed in an MEA system (Maestro Pro, manufactured by Axion BioSystems, Inc.), 1 μmol/L of isoproterenol (manufactured by Tokyo Chemical Industry Co., Ltd.) and 3 μmol/L of carbachol (manufactured by Tokyo Chemical Industry Co., Ltd.) were added to the culture medium, and then the extracellular potential was measured after 20 minutes from the addition (medium control, atropine concentration: 0 μmol/L). Subsequently, 0.01 μmol/L of atropine (manufactured by Tokyo Chemical Industry Co., Ltd.) was added to the MEA plate, and then the extracellular potential was measured after 20 minutes from the addition. Similarly, atropine was added to give concentrations of 0.1 μmol/L and 1 μmol/L, and then the extracellular potential was measured at each concentration.
From the measurement results of the extracellular potential, the interval between sharp peaks indicating depolarization of human iPS cell-derived myocardial cells was taken as the beating time (sec), and the heart rate (/min)=60/beating time (sec) was calculated. The addition of atropine was confirmed to result in an increase in heart rate of up to 51% (FIG. 7).
In the same manner as in Example 4, evaluation was carried out using an MEA plate on which human iPS cell-derived myocardial cells were cultured. Specifically, the same operations as in Example 4 were carried out except that atropine added in Example 4 was changed to tiotropium (manufactured by Tokyo Chemical Industry Co., Ltd.) and the concentration of tiotropium added was 1 pmol/L, 10 pmol/L, 100 pmol/L, and 1,000 pmol/L.
In the same manner as in Example 4, evaluation was carried out using an MEA plate on which human iPS cell-derived myocardial cells were cultured. Specifically, the same operations as in Example 4 were carried out except that atropine added in Example 4 was changed to glycopyrronium (manufactured by Tokyo Chemical Industry Co., Ltd.) and the concentration of glycopyrronium added was 0.01 nmol/L, 0.1 nmol/L, 1 nmol/L, and 10 nmol/L.
In the same manner as in Example 4, evaluation was carried out using an MEA plate on which human iPS cell-derived myocardial cells were cultured. Specifically, the same operations as in Example 4 were carried out except that the atropine added in Example 4 was changed to propranolol (manufactured by FUJIFILM Wako Pure Chemical Corporation) and the concentration of propranolol added was 0.1 nmol/L, 1 nmol/L, 10 nmol/L, and 100 nmol/L.
In the same manner as in Example 4, evaluation was carried out using an MEA plate on which human iPS cell-derived myocardial cells were cultured. […]

## C[N+](C)(C)CCOC(N)=O [carbachol]
[1]
  decrease in heart rate: up to 34%

## CN1[C@@H]2CC[C@H]1C[C@@H](OC(=O)C(CO)c1ccccc1)C2 (some centres unmarked) [atropine]
[2]
  increase in heart rate: up to 51%
